System: ApoB secretion, HepG2 cells
Test: Quantification of the secretion of ApoB (HepG2 cells, immunoprecipitation, scintillation counting)
Assay type: cell-based
Settings: 24 hours of incubation; for IC50: Homo sapiens
How it was run: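 HepG2 cells in MEM Rega 3 with 10% FCS were treated at 70% confluency with compound (DMSO 0.4% final) for 24 h. Medium ApoB was immunoprecipitated with sheep anti-apoB then rabbit anti-sheep antibody (24 h each, 8° C), and pellet radioactivity was counted by liquid scintillation to give IC50.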

Structure (SMILES)	IC50 (HepG2, 24 h) [nM]	further results
CCNC(=O)C(c1ccccc1)C1CCN(c2ccc(NC(=O)c3ccccc3-c3ccccc3)cc2)CC1 (centres unmarked) [Co. No. 180]	114	–
CCCNC(=O)C(c1ccccc1)C1CCN(c2ccc(NC(=O)c3ccccc3-c3ccccc3C)cc2)CC1 (centres unmarked) [Co. No. 131]	417	–
O=C(Nc1ccc(N2CCC(C(C(=O)Nc3ccccc3)c3ccccc3)CC2)cc1)c1ccccc1-c1cccc(Cl)c1 (centres unmarked) [Co. No. 108]	188	–
O=C(Nc1ccc(N2CCC(C(C(=O)Nc3ccccc3)c3ccccc3)CC2)cc1)c1cccc2c1-c1ccccc1C2 (centres unmarked) [Co. No. 129]	2770	–
O=C(Nc1ccc(N2CCC(C(C(=O)NCc3ccccc3)c3ccccc3)CC2)cc1)c1ccccc1-c1cccc(C(F)(F)F)c1 (centres unmarked) [Co. No. 105]	90.6	–
O=C(Nc1ccc(N2CCC(C(C(=O)NCc3ccccc3)c3ccc(F)cc3)CC2)cc1)c1ccccc1-c1ccc(C(F)(F)F)cc1 (centres unmarked) [Co. No. 254]	28.8	–
COC(=O)C(c1ccccc1)C1CCN(c2ccc(NC(=O)c3ccccc3-c3ccc(CC(C)C)cc3)cc2)CC1 (centres unmarked) [Co. No. 233]	< 30	–
O=C(Nc1ccc(N2CCC(C(C(=O)Oc3ccccc3)c3ccccc3)CC2)cc1)c1ccccc1-c1ccccc1 (centres unmarked) [Co. No. 178]	34.3	–
CC(C)=CCOC(=O)C(c1ccccc1)C1CCN(c2ccc(NC(=O)c3ccccc3-c3ccc(C(F)(F)F)cc3)cc2)CC1 (centres unmarked) [Co. No. 245]	525	–
O=C(Nc1ccc(N2CCC(C(C(=O)Nc3ccccc3)c3ccccc3)CC2)cc1)c1ccccc1OCc1ccccc1 (centres unmarked) [Co. No. 33]	≥ 3000	–
Nc1cccc(-c2ccccc2C(=O)Nc2ccc(N3CCC(C(C(=O)NCc4ccccc4)c4ccccc4)CC3)cc2)c1 (centres unmarked) [Co. No. 98]	57.9	–
CCOC(=O)C(c1ccc(Cl)cc1)N1CCN(c2ccc(NC(=O)c3ccccc3-c3ccc(C(F)(F)F)cc3)cc2)CC1 (centres unmarked) [Co. No. 262]	558	–
CCCNC(=O)C(c1ccccc1)C1CCN(c2ccc(NC(=O)c3ccccc3-c3ccc4ccccc4c3)cc2)CC1 (centres unmarked) [Co. No. 47]	199	–
COc1ccccc1-c1ccccc1C(=O)Nc1ccc(N2CCC(C(C(=O)NCc3ccccc3)c3ccccc3)CC2)cc1 (centres unmarked) [Co. No. 101]	207	–
C=CCNC(=O)C(c1ccccc1)N1CC=C(c2ccc(NC(=O)c3ccccc3-c3ccccc3)cc2)CC1 (centres unmarked) [Co. No. 167]	< 30	–
Cc1ccc(-c2ccccc2C(=O)Nc2ccc(N3CCC(C(C(=O)NCc4ccccc4)c4ccccc4)CC3)cc2)cc1 (centres unmarked) [Co. No. 104]	7.94	–
O=C(Nc1ccc(C2CCN(C(C(=O)OCCCc3ccccc3)c3ccccc3)CC2)cc1)c1ccccc1-c1ccc(C(F)(F)F)cc1 (centres unmarked) [Co. No. 221]	< 30	–
O=C(Nc1ccc(C2CCN(C(C(=O)NCC(F)(F)F)c3ccccc3)CC2)cc1)c1ccccc1-c1ccc(C(F)(F)F)cc1 (centres unmarked) [Co. No. 78]	32.5	–
COC(=O)C(c1ccccc1)N1CCN(c2ccc(NC(=O)c3ccccc3-c3ccc(C(F)(F)F)cc3)cc2)CC1 (centres unmarked) [Co. No. 240]	–	pIC50 (listed as 240): 7.982
O=C(Nc1ccc(C2=CCN(C(C(=O)NCc3ccccc3)c3ccccc3)CC2)cc1)c1ccccc1-c1ccccc1 (centres unmarked) [Co. No. 166]	36	–

Structure (SMILES)	IC50 (HepG2, 24 h) [nM]	further results
O=C(Nc1ccc(C2CCN(C(C(=O)NC3CC3)c3ccccc3)CC2)cc1)c1ccccc1-c1ccc(C(F)(F)F)cc1 (centres unmarked) [Co. No. 72]	≤ 30	–
CCNC(=O)C(c1ccccc1)N1CCN(c2ccc(NC(=O)c3ccccc3-c3ccc(Cl)cc3)cc2)CC1 (centres unmarked) [Co. No. 160]	32.4	–
C=CCNC(=O)C(c1ccccc1)N1CCC(c2ccc(NC(=O)c3ccccc3-c3ccc(C(F)(F)F)cc3)cc2)CC1 (centres unmarked) [Co. No. 71]	10.3	–
CCNC(=O)C(c1ccccc1)N1CCN(c2ccc(NC(=O)c3ccc(C)cc3-c3ccc(C(F)(F)F)cc3)cc2)CC1 (centres unmarked) [Co. No. 194]	43	–
CCCNC(=O)C(c1ccccc1)C1CCN(c2ccc(NC(=O)c3ccccc3-c3ccc(F)cc3F)cc2)CC1 (centres unmarked) [Co. No. 84, 2′,4′-difluoro-N-[4-[4-[2-oxo-1-phenyl-2-(propylamino)ethyl]-1-piperidinyl]phenyl]-[1,1′-biphenyl]-2-carboxamide]	79.4	–
CCCNC(=O)C(c1ccccc1)C1CCN(c2ccc(NC(=O)c3ccccc3-c3ccc(OC)cc3)cc2)CC1 (centres unmarked) [Co. No. 46]	461	–
CC(=O)N(c1ccccc1)C1CCN(c2ccc(NC(=O)c3ccccc3-c3ccc(C(F)(F)F)cc3)cc2)CC1 [Co. No. 253]	–	IC50: 130 nM
O=C(Nc1ccc(N2CCN(CC(C(=O)NCc3ccccc3)c3ccccc3)CC2)cc1)c1ccccc1-c1ccc(C(F)(F)F)cc1 (centres unmarked) [Co. No. 67]	247	–
COC(=O)C(c1ccccc1)N1CCN(c2cc(C)c(NC(=O)c3ccccc3-c3ccc(C(F)(F)F)cc3)c(C)c2)CC1 (centres unmarked) [Co. No. 209]	7.96	–
CCNC(=O)C(c1ccccc1)C1CCN(c2ccc(NC(=O)c3ccccc3-c3cccc(N)c3)cc2)CC1 (centres unmarked) [Co. No. 89]	363	–
O=C(Nc1ccc(N2CCN(C(C(=O)OCc3ccccc3)c3ccccc3)CC2)cc1)c1ccccc1-c1ccc(C(F)(F)F)cc1 (centres unmarked) [Co. No. 142]	114	–
COC(=O)N(c1ccccc1)C1CCN(c2ccc(NC(=O)c3ccccc3-c3ccc(C(F)(F)F)cc3)cc2)CC1 [Co. No. 251]	–	IC50: 9.64 nM
COc1ccc(-c2ccccc2C(=O)Nc2ccc(N3CCC(C(C(=O)Nc4ccccc4)c4ccccc4)CC3)cc2)cc1 (centres unmarked) [Co. No. 116]	385	–
COC(=O)C(c1ccccc1)N1CCN(c2ccc(NC(=O)c3ccc(C)cc3-c3ccc(C(F)(F)F)cc3)cc2)CC1 (centres unmarked) [Co. No. 184]	3.13	–
O=C(Nc1ccc(N2CCC(C(C(=O)Nc3ccccc3)c3ccccc3)CC2)cc1)c1ccccc1CSc1ccccc1 (centres unmarked) [Co. No. 31]	1280	–
CCNC(=O)C(c1ccccc1)N1CCN(c2ccc(NC(=O)c3ccc(Cl)cc3-c3ccc(C(F)(F)F)cc3)cc2)CC1 (centres unmarked) [Co. No. 201]	< 30	–
CC(C)NC(=O)C(c1ccccc1)C1CCN(c2ccc(NC(=O)c3ccccc3Cc3ccccc3)cc2)CC1 (centres unmarked) [Co. No. 28]	767	–
CCNC(=O)C(c1ccccc1)N1CCN(c2ccc(NC(=O)c3c(C)cccc3-c3ccc(C(F)(F)F)cc3)cc2)CC1 (centres unmarked) [Co. No. 197]	16.5	–
O=C(Nc1ccc(N2CCC(C(C(=O)NCc3ccccc3)c3ccccc3)CC2)cc1)c1ccccc1OCc1ccccc1 (centres unmarked) [Co. No. 8]	60.1	–
CCNC(=O)C(c1ccccc1)C1CCN(c2ccc(NC(=O)c3ccccc3-c3cccc4ccccc34)cc2)CC1 (centres unmarked) [Co. No. 134]	65.3	–

Structure (SMILES)	IC50 (HepG2, 24 h) [nM]	further results
COC(=O)C(c1ccccc1)N1CC=C(c2ccc(NC(=O)c3ccccc3-c3ccccc3)cc2)CC1 (centres unmarked) [Co. No. 156]	122	–
CCCNC(=O)C(c1ccccc1)C1CCN(c2ccc(NC(=O)c3ccccc3-c3ccccc3)cc2)CC1 (centres unmarked) [Co. No. 13]	≤ 30	–
O=C(Nc1ccc(N2CCN(C(C(=O)Oc3ccccc3)c3ccccc3)CC2)cc1)c1ccccc1-c1ccc(C(F)(F)F)cc1 (centres unmarked) [Co. No. 158]	21.3	–
CCNC(=O)C(c1ccccc1)N1CCN(c2cc(C)c(NC(=O)c3ccccc3-c3ccc(C(F)(F)F)cc3)c(C)c2)CC1 (centres unmarked) [Co. No. 216]	47.1	–
O=C(Nc1ccc(N2CCC(C(C(=O)Nc3ccccc3)c3ccccc3)CC2)cc1)c1ccccc1COc1ccccc1 (centres unmarked) [Co. No. 32]	2390	–
CCCNC(=O)C(c1ccccc1)C1CCN(c2ccc(NC(=O)c3cccc4c3-c3ccccc3C4)cc2)CC1 (centres unmarked) [Co. No. 12]	231	–
CCNC(=O)C(c1ccccc1)C1CCN(c2ccc(NC(=O)c3ccccc3-c3ccc(C(F)(F)F)cc3)cc2)CC1 (centres unmarked) [Co. No. 181]	3.31	–
CCCNC(=O)C(c1ccccc1)C1CCN(c2ccc(NC(=O)c3ccccc3OCc3ccccc3)cc2)CC1 (centres unmarked) [Co. No. 18]	206	–
Cc1ccccc1-c1ccccc1C(=O)Nc1ccc(N2CCC(C(C(=O)NCc3ccccc3)c3ccccc3)CC2)cc1 (centres unmarked) [Co. No. 51]	68.7	–
Cc1ccc(-c2ccccc2C(=O)Nc2ccc(N3CCC(C(C(=O)Nc4ccccc4)c4ccccc4)CC3)cc2)cc1 (centres unmarked) [Co. No. 117]	121	–
COC(=O)C(c1ccccc1)N1CCN(c2ccc(NC(=O)c3ccc(Cl)cc3-c3ccc(C(F)(F)F)cc3)cc2)CC1 (centres unmarked) [Co. No. 192]	158	–
COC(=O)C(c1ccccc1)N1CCN(c2ccc(N(C)C(=O)c3ccccc3-c3ccc(C(F)(F)F)cc3)cc2)CC1 (centres unmarked) [Co. No. 183]	21.6	–
CCCNC(=O)C(c1ccccc1)C1CCN(c2ccc(NC(=O)c3ccccc3-c3ccc(F)cc3)cc2)CC1 (centres unmarked) [Co. No. 44]	1040	–
CCNC(=O)C(c1ccccc1)N1CCN(c2ccc(NC(=O)c3ccccc3-c3ccc(C(F)(F)F)cc3)cc2C(F)(F)F)CC1 (centres unmarked) [Co. No. 217]	2690	–
CC(C)NC(=O)C(c1ccccc1)C1CCN(c2ccc(NC(=O)c3cccc4c3-c3ccccc3C4)cc2)CC1 (centres unmarked) [Co. No. 21]	245	–
COC(=O)C(c1ccc(Cl)cc1Cl)N1CCN(c2ccc(NC(=O)c3ccccc3-c3ccc(C(F)(F)F)cc3)cc2)CC1 (centres unmarked) [Co. No. 259]	420	–
Cc1cccc(-c2ccccc2C(=O)Nc2ccc(N3CCC(C(C(=O)Nc4ccccc4)c4ccccc4)CC3)cc2)c1 (centres unmarked) [Co. No. 112]	434	–
CCNC(=O)C(c1ccccc1)N1CCN(c2ccc(NC(=O)c3cc(C)ccc3-c3ccc(C(F)(F)F)cc3)cc2)CC1 (centres unmarked) [Co. No. 198]	73.1	–
CC(C)NC(=O)C(c1ccccc1)C1CCN(c2ccc(NC(=O)c3ccccc3COc3ccccc3)cc2)CC1 (centres unmarked) [Co. No. 25]	287	–

— patent US8354402B2, “Polyarylcarboxamides useful as lipid lowering agents” (Janssen Pharmaceutica N.V., priority 2000, dated 2013)
